Laboratory results reported in patent publication US10111902B2, “Polymers for reversing heparin-based anticoagulation” (University of British Columbia, priority 2011, dated 2018).
“Also recorded” adds a separate entry of the source.

Columns and labels:
Tinzaparin [1] = assay: LMWH Tinzaparin neutralization in living rats (anti-Xa assay); assay type: in vivo, rat; conditions: 25 U Tinzaparin, then about 1 mg polymer or protamine (3 mg/kg)
Procedure: The present example examines heparin binding polymer effectiveness in vivo. HBSPCM polymers were tested for their ability to neutralize UFH and LMWH in living rats. Rats were first injected with heparin or heparin derivative, and then injected with the JNK-1 polymers, protamine or saline control to neutralize the previously administered heparin or heparin derivative. Neutralization was measured by detecting the percentage of factor Xa using an anti-Xa assay as a measure of anticoagulant activity.
In addition, Enoxaparin alone and JNK-1 polymers+Enoxaparin were compared (FIG. 8C). An anti-Xa assay was used to measure heparin activity in rat blood. In this pilot study, rats were injected with 25 U of UFH, Tinzaparin or Enoxaparin (0 minutes). Blood was collected after UFH, Tinzaparin, or Enoxaparin infusion (5 minutes). Approximately 1 mg of JNK-1 polymers or protamine (dose was 3 mg/kg) was injected at 7 minutes and the blood was collected at 12 minutes after UFH/Tinzaparin/Enoxaparin infusion (5 minutes after JNK-1 infusion), and 17 minutes (10 minutes after JNK-1 polymer infusion). For subjects receiving Enoxaparin, blood was collected at additional time points (25 minutes and 30 minutes). Blood samples collected before the UFH, Enoxaparin or Tinzaparin infusion were used as a base control. […] Each data point shown reflects an average and standard deviation from five rats. […]

LMWH Enoxaparin = assay: APTT assay, neutralization of LMWH Enoxaparin in citrate plasma; assay type: biochemical, human; conditions: Enoxaparin 2.0 U/ml or 1.14 IU/mL, 0.001 to 0.25 mg/ml
Procedure: (§1) Citrate plasma was anticoagulated with 2.0 U/ml UFH, Enoxaparin and Tinzaparin and was treated with different concentrations of the HBSPCM polymers and protamine (0.001 to 0.25 mg/ml). The APTT was measured for each sample.
(§2) Citrate plasma was anticoagulated with UFH (2.0 IU/mL), Enoxaparin (2.0 IU/mL) and Tinzaparin (1.14 IU/mL) and was titrated with different concentrations of the HBSPCM polymers and protamine (0.001 to 0.25 mg/ml). The APTT was measured for each sample.
(§3) Ability of HBSPCM polymers JNK-9, JNK-10 and JNK-11 was studied for the range of concentration from 0.01 to 0.25 mg/mL prepared in 0.15 M saline. Citrated blood was spun at 3000 RPM for 10 min to obtain platelet poor plasma (PPP). The PPP was then heparinized by adding 45 μL of heparin (UFH, LMWH etc.) to 2200 μL of PPP final concentration of 2.0 IU/mL for UFH and Tinzaparin and 1.14 IU/mL for Enoxaparin. Normal control was prepared by adding 25 μL of 0.15 M saline to 250 μL of PPP. 25 μL of each antidote solution (polymer or protamine) was added to 225 μL of heparinized PPP. 250 μL of APTT reagent (actin FSL) was then added and samples were incubated for 3 min at 37° C. 250 μL of normal control was combined with 250 μL of APTT reagent and also incubated for 3 min. 50 μL of 0.025M CaCl2 was added to 100 μL aliquots of normal control and sample (in triplicate). […]

LMWH Tinzaparin = assay: APTT assay, neutralization of LMWH Tinzaparin in citrate plasma; assay type: biochemical, human
Procedure: Citrate plasma was anti-coagulated with 2.0 U/ml LMWH (LMWH control) and was titrated with different concentrations of JNK-1 polymers (0.009 to 8.69 nanomoles/ml) (FIG. 4A) and protamine (0.2 to 222.2 nanomoles/ml) (FIG. 4B).
as §1, §2
as §3, with “C.” for “C. 250 μL of normal control was combined with 250 μL of APTT reagent and also incubated for 3 min. 50 μL of 0.025M CaCl2 was added to 100 μL aliquots of normal control and sample (in triplicate).”

complement system = assay: Complement activation, CH50 sheep erythrocyte lysis assay; assay type: biochemical; conditions: serum, 0.05 and 0.5 mg/mL, 1 h, 37° C
Procedure: The level of complement activation was measured by a CH50 sheep erythrocyte lysis assay. Ten microliter of each of the 0.5 and 5 mg/mL polymers or protamine was mixed with 90 μL of serum for 1 h at 37° C. The final concentration of polymer/protamine to serum was 0.05 and 0.5 mg/mL. One mg/mL heat-activated human IgG and 5 mM EDTA, after mixing with serum, were the positive and negative controls, respectively, for the study. 60 μL of post-incubation serum/polymer or protamine mixture was diluted by 120 μL of GVB^2+ (CompTech). Seventy-five microliter of GVB^2+ diluted serum/polymer or protamine mixture was incubated for 1 h at 37° C. with 75 μL of Ab-sensitized sheep erythrocyte (CompTech). The reaction was stopped by addition of 300 μL cold GVB-EDTA to each sample. The samples were centrifuged and the optical density of supernatant was measured at 540 nm. One hundred percent lysis of the sheep erythrocyte was done by dH2O. The percentage of complement activation was calculated by 100-% lysis of sheep erythrocytes.

Tinzaparin [2] = assay: Anti Xa neutralization of Tinzaparin in platelet poor plasma; assay type: biochemical, human; conditions: One IU LMWH per ml in platelet poor plasma
Procedure: (§4) Both JNK-1 and JNK-2 result in greater neutralization of unfractionated heparin at two doses (50 and 100 μg/ml), Tinzaparin (LMWH) and Enoxaparin (LMWH).

UFH [3] = assay: Thromboelastography (TEG), neutralization of UFH in whole blood; assay type: cell-based; conditions: human whole blood, UFH 0.5 U/ml, re-calcified at 37° C
Procedure: This example examines thromboelastography in the presence of various heparin binders. Thromboelastography (TEG) provides an in vitro method for monitoring of the evolution of the viscoelastic properties and coagulation kinetics of blood as clotting proceeds. The principle components of the TEG are a cylindrical cup and a bob suspended in the cup from a weak torsion wire. The warmed cup oscillates over a 10 second period through an angle of 4° 45′. Blood is added and a torque is transmitted to the bob as the gel forms. The rate of clot formation, the strength of the clot, and the rate of clot lysis are reflected in the shape traced out by the maxima in the bob oscillation as a function of time (the trace of the TEG). […]
To carry out TEG experiments, citrate anti-coagulated whole blood with heparin or heparin derivatives added are incubated with buffered HBSPCM polymers (sodium citrate or saline) for 1 minute before recalcification at 37° C. Clot formation kinetics are monitored in a TEG machine (350 μl whole blood+35 μl polymer or control solution) at 37° C.
The coagulation time (FIG. 7A) and maximum clot strength, or maximum amplitude (MA) (FIG. 7B) are shown. Citrated whole blood was added to UFH or Tinzaparin (0.5 U/ml) and re-calcified at 37° C. in a TEG cup and monitored using a TEG machine. […]

UFH [4] = assay: Anti Xa neutralization of UFH in platelet poor plasma; assay type: biochemical, human; conditions: One IU UFH per ml in platelet poor plasma
Procedure: as §4

[5] = system: unfractionated heparin (UFH); assay: APTT assay, neutralization of UFH in citrate plasma; assay type: biochemical, human
Procedure: In one example, a heparin binding synthetic polyvalent cationic macromolecule JNK-1 can neutralize UFH in human blood under in vitro conditions (FIGS. 4A and 4B). Citrate plasma was anti-coagulated with 1.0 U/ml UFH (UFH control) and was titrated with different concentrations of JNK-1 polymers (0.009 to 8.69 nanomoles/ml) and protamine (0.2 to 222.2 nanomoles/ml).
as §1, §2
Ability of HBSPCM polymers JNK-9, JNK-10 and JNK-11 was studied for the range of concentration from 0.01 to 0.25 mg/mL prepared in 0.15 M saline. Citrated blood was spun at 3000 RPM for 10 min to obtain platelet poor plasma (PPP). The PPP was then heparinized by adding 45 μL of heparin (UFH, LMWH etc.) to 2200 μL of PPP final concentration of 2.0 IU/mL for UFH and Tinzaparin and 1.14 IU/mL for Enoxaparin. Normal control was prepared by adding 25 μL of 0.15 M saline to 250 μL of PPP. 25 μL of each antidote solution (polymer or protamine) was added to 225 μL of heparinized PPP. 250 μL of APTT reagent (actin FSL) was then added and samples were incubated for 3 min at 37° C. 250 μL of normal control was combined with 250 μL of APTT reagent and also incubated for 3 min. 50 μL of 0.025M CaCl2 was added to 100 μL aliquots of normal control and sample (in triplicate). A heparinized control containing 225 μL of PPP and 25 μL of saline was also prepared and run similar to normal control.

protamine
neutralization of anticoagulant activity of Tinzaparin in rats (anti-Xa) (Tinzaparin [1]): could not completely neutralize the LMWH
LMWH Enoxaparin neutralization (APTT) (LMWH Enoxaparin): neutralizes UFH and LMWH only in the narrow concentration range
LMWH Tinzaparin neutralization (APTT) (LMWH Tinzaparin; citrate plasma, Tinzaparin 2.0 U/ml or 1.14 IU/mL, 0.001 to 0.25 mg/ml): neutralizes UFH and LMWH only in the narrow concentration range
LMWH Tinzaparin neutralization (APTT) (LMWH Tinzaparin; human citrate plasma anti-coagulated with LMWH Tinzaparin (2.0 U/ml), titrated with JNK-1 0.009 to 8.69 or protamine 0.2 to 222.2 nanomoles/ml): not at all; also recorded: incapable of neutralizing LMWH
complement activation (CH50) (complement system): significant complement activation
Anti Xa Neutralization (%) of Tinzaparin at 100 μg/ml (Tinzaparin [2]): 77 ± 1%
UFH neutralization (TEG: coagulation time, clot strength) (UFH [3]): not effective at neutralizing UFH or LMWH Tinzaparin and Enoxaparin in terms of the time to clot formation
Anti Xa Neutralization (%) of UFH at 50 μg/ml (UFH [4]; 50 μg/ml): 84%
Anti Xa Neutralization (%) of UFH at 100 μg/ml (UFH [4]; 100 μg/ml): 85 ± 0%
UFH neutralization (APTT) ([5]; citrate plasma, UFH 2.0 U/ml, polymers and protamine 0.001 to 0.25 mg/ml): neutralizes UFH and LMWH only in the narrow concentration range
anticoagulant effect at higher concentration (APTT) ([5]; heparinized citrate plasma, 0.001 to 0.25 mg/ml): possesses anticoagulant activity
